Experimental data as given in paper PMC8079033, “Design, synthesis, anticancer evaluation, and molecular modelling studies of novel tolmetin derivatives as potential VEGFR-2 inhibitors and apoptosis inducers” (Journal of Enzyme Inhibition and Medicinal Chemistry, 2021).

Legend:
colon (HCT-15) cell line = assay: MTT cytotoxicity assay; assay type: cell-based; settings: Homo sapiens, mean ± SD of three experiments
caspase-8 = assay: Caspase-8 ELISA in HCT-15 cells; assay type: cell-based, human
Protocol: (§1) To measure caspase-8 and caspase-9 levels, DRG® Caspase-8 (human) (EIA-4863) ELISA and DRG® Caspase-9 (human) (EIA-4860) ELISA kits were used. Briefly, prepare cell extracts after induction of apoptosis. Resuspend the extracts in lysis buffer, incubate 60 min at room temperature, and centrifuge for 15 min. Wash the microwell strips with 400 µl wash buffer. Add 100 µl of sample diluent in duplicate to all standard wells. Add 100 µl of sample diluent in duplicate to the blank wells. Add 50 µl of sample diluent to the sample wells. Add 50 µl of each sample in duplicate to the sample wells. Add 50 µl of detection antibody to all wells and incubate at room temperature for 2 h. Add 100 µl of diluted anti-rabbit-IgG-HRP to all wells, including the blank wells. Pipette 100 µl of (3,3′,5,5′-Tetramethylbenzidine) TMB substrate solution to all wells and incubate at room temperature for about 15 min. Stop the enzyme reaction by pipetting 100 µl of stop solution into each well. Read absorbance of each microwell on a spectro-photometer using 450 nm. Determine the absorbance of both the samples and the standards.
(§2) The activation of caspases as caspase-3, caspase-8, and caspase-9 is responsible for apoptosis, particularly caspase-3 which is an effector caspase that has an important role in apoptosis. It is activated by one of the initiator caspases which results in the activation of certain enzymes responsible for the fragmentation of DNA[53]. Caspase-8 and -9 are initiator caspases that are responsible for caspase-3 activation.

caspase-9 = assay: Caspase-9 ELISA in HCT-15 cells; assay type: cell-based, human
Protocol: as §1, §2

[1] = test system: leukaemia HL-60 (TB) cell line; assay: MTT cytotoxicity assay; assay type: cell-based; settings: Homo sapiens, mean ± SD of three experiments
HUVECs = assay: Wound healing assay (CytoSelect 24-well); assay type: cell-based, human; settings: 72 h, 5b 2.4 µM, sunitinib 3.2 µM, control 97.03 ± 5.47
Protocol: Wound healing assay of compound 5b was evaluated using CytoSelect™ 24-Well Wound Healing Assay kit Catalog # CBA-120 according to manufacturer’s instructions. In brief, the 24-well plate wound healing inserts were allowed to warm up at room temperature for 10 minutes, then to each well, 500 µl of human umbilical vascular endothelial cells (HUVECs) suspension (1.0 × 10^6) in media containing 10% fetal bovine serum (FBS) was added. Cells were kept in a cell culture incubator until a monolayer form. Carefully the insert was removed from the well. The media were slowly aspirated and discarded from the wells. The wells were washed with media to remove dead cells and debris. Finally, the media were added to wells to keep cells hydrated, then wells were visualized under a light microscope. […] The percent closure of the cells into the wound field was measured.
One of the hallmarks of angiogenesis is cell migration, which happens in the earlier stages of the angiogenic cascade. A wound-healing assay was performed to investigate in vitro anti-angiogenic property of compound 5b.

caspase-3 = assay: Caspase-3 (active) ELISA in HCT-15 cells; assay type: cell-based, human
Protocol: The level of the apoptotic marker caspase-3 was assessed using Human Caspase-3 (active) ELISA Kit Catalog # KHO1091. The procedure of the used kit was done according to the manufacturer’s instructions. Allow all reagents to reach room temperature before use. Gently mix all liquid reagents prior to use. Add 100 µl of the standard diluent buffer to the zero standard wells. Add 100 µl of standards and controls or diluted samples to the appropriate microtiter wells. Incubate for 2 h at room temperature. […] Incubate for 1 h at room temperature. Add 100 µl anti-rabbit IgG HRP working solution to each well. Prepare the working dilution and incubate for 30 min at room temperature. Add 100 µl of stabilised chromogen to each well. The liquid in the wells will begin to turn blue. Incubate for 30 min at room temperature and in the dark. Add 100 µl of stop solution to each well. The solution in the wells should change from blue to yellow. Read the absorbance of each well at 450 nm. Read the plate within 2 h after adding the stop solution. Use a curve fitting software to generate the standard curve. Read the concentrations for unknown samples and controls from the standard curve.
as §2

renal (UO-31) cell line = assay: MTT cytotoxicity assay; assay type: cell-based; settings: Homo sapiens, mean ± SD of three experiments

**Q.** What does the source list for `CCN(CC)CCNC(=O)c1c(C)[nH]c(/C=C2\C(=O)Nc3ccc(F)cc32)c1C` [Sunitinib, reference compound]?
**A.** IC50 (colon (HCT-15) cell line): 9.06 ± 0.49 µM; Caspase-8 (caspase-8; mean ± SD of three experiments, control 0.377 ± 0.03): 1.284 ± 0.11 ng/mL; increase in the level of caspase-8 (caspase-8; vs control): 3.406 fold; Caspase-9 (caspase-9; mean ± SD of three experiments, control 3.225 ± 0.44): 27.26 ± 0.82 ng/mL; increase in the level of caspase-9 (caspase-9; vs control): 8.453 fold; IC50 [1]: 2.77 ± 0.14 µM; Wound closure percentage (HUVECs): 44.44 ± 2.51%; Caspase-3 (caspase-3; mean ± SD of three experiments, control 0.073 ± 0.01): 0.641 ± 0.02 ng/mL; increase in the level of caspase-3 (caspase-3; vs control): 8.780 fold; IC50 (renal (UO-31) cell line): 18.1 ± 0.95 µM
